{"source": "paper PMC5371667", "about": "“Targeting Bile Acid Receptors: Discovery of a Potent and Selective Farnesoid X Receptor Agonist as a New Lead in the Pharmacological Approach to Liver Diseases” (Frontiers in Pharmacology, 2017)", "key": {"[1]": {"molecular_target": "T1, human GPBAR1 (Homo sapiens, UniProt Q8TDU6)", "T1 construct": "expressed in transfected cells; host or cells: HepG2", "T1 sequence (Q8TDU6 1-330)": "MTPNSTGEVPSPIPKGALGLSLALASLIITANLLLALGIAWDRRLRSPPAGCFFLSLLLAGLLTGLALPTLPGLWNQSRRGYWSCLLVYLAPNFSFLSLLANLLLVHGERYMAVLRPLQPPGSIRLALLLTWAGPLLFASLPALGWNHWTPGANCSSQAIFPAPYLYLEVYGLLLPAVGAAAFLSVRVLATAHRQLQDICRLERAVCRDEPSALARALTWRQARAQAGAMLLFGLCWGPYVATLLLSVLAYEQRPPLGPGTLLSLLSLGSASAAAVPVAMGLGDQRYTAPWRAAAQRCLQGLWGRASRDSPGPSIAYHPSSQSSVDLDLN", "experiment": "GPBAR1 transactivation on HepG2 cells (CRE luciferase reporter)", "format": "cell-based", "conditions": "50 and 100 μM", "experimental": "For FXR mediated transactivation, HepG2 cells were plated at 5 × 10^4 cells/well in a 24 well plate. Cells were transfected with 200 ng of the reporter vector p(hsp27)-TK-LUC containing a FXR response element (IR1) cloned from the promoter of heat shock protein 27 (hsp27), 100 ng of pSG5-FXR, 100 ng of pSG5-RXR, and 100 ng of pGL4.70 (Promega), a vector encoding the human Renilla gene. For GPBAR1 mediated transactivation, HepG2 cells were plated at 5 × 10^4 cells/well in a 24 well-plate and transfected with 200 ng of pGL4.29 (Promega), a reporter vector containing a cAMP response element (CRE) that drives the transcription of the luciferase reporter gene luc2P, with 100 ng of pCMVSPORT6-human GPBAR1, and with 100 ng of pGL4.70 Renilla. […] TLCA (10 μM) was used as a positive control for GPBAR1 activity."}, "[2]": {"tested_on": "FXR target genes in liver", "experiment": "Hepatic FXR target gene expression in C57BL6 mice (RT-PCR)", "format": "in vivo", "conditions": "50 mg/kg per os, p < 0.05 versus control mice", "experimental": "HepG2 cells were plated at 1 × 10^6 cells/well in a six well plate. After an overnight incubation, cells were starved and then stimulated for 18 h with compound 2 at 1 μM. Total RNA was isolated from HepG2 cells or liver tissues using the TRIzol reagent according to the manufacturer’s specifications (Invitrogen). One microgram of purified RNA was treated with DNase-I and reverse transcribed with Superscript II (Invitrogen). For Real Time PCR, 10 ng template was dissolved in 25 μL containing 200 nmol/L of each primer and 12.5 μL of 2× SYBR FAST Universal ready mix (Invitrogen). All reactions were performed in triplicate, and the thermal cycling conditions were as follows: 2 min at 95°C, followed by 40 cycles of 95°C for 20 s and 60°C for 30 s in StepOnePlus (Applied Biosystems). The relative mRNA expression was calculated accordingly to the Ct method. Primers were designed using the software PRIMER3^1 using published data obtained from the NCBI database. Forward and reverse primer sequences were the following: human GAPDH, […] and […]; human BSEP, […] and […]; human OSTα, […] and […]; human SHP, […] and […]; mouse NTCP, […] and […]; mouse CYP7A1, […] and […]; mouse FGF21, […] and […]; mouse GAPDH, […] and […]; mouse BSEP, […] and […]; mouse OSTα, […] and […]; mouse SHP, […] and […].\nC57BL6 male mice were from Harlan Nossan (Udine, Italy). The colonies were maintained in the animal facility of University of Perugia. Mice were housed under controlled temperatures (22 °C) and photoperiods (12:12-hour light/dark cycle), allowed unrestricted access to standard mouse chow and tap water and allowed to acclimate to these conditions for at least 5 days before inclusion in an experiment. A total number of eight mice were used in this study. The study was conducted in agreement with the Italian law and the protocol was approved by Ethical Committee of University of Perugia and by a National Committee of Ministry of Health (permission N° 42/2014 B). The health and body conditions of the animals were monitored daily by the veterinarian in the animal facility. At the day of sacrifice mice were deeply anesthetized with a mixture of […]/xylazine at a dose of 50 mg/Kg."}, "[3]": {"conditions": "mouse, in vivo, po, 50 mg/kg"}, "[4]": {"tested_on": "bile acid pool in plasma and gallbladder", "experiment": "Bile acid pool in C57BL6 mice (LC-MS/MS)", "procedure": "At the day of sacrifice livers, gallbladders, blood and feces were collected from mice for further analysis.\nThe stock solutions of the individual tauro-conjugated and un-conjugated BAs were prepared separately in methanol at a concentration of 1 mg/mL. All stock solutions were stored at –20°C. Calibration standards were prepared by combining appropriate volumes of each BA stock solution and methanol. […] Mice serum sample aliquots of 20 μL were mixed with 80 μL of CH3OH, shaken continuously, vortexed and, after centrifugation at 16000 g for 10 min, the clear supernatant was transferred to a new vial, snap frozen and lyophilized. The sample was then re-dissolved in 40% water/ 60% MeOH with 0.1% formic acid and ammonium acetate 5 mM. […] For gallbladder, 10 mg of lyophilized gallbladder were manually pestle using a mortar and dissolved in 1 mL CH3OH. After centrifugation at 16000 g for 10 min, 500 μL of supernatants were lyophilized and reconstituted in 100 μL of 40% water/60% MeOH with 0.1% formic acid and ammonium acetate 5 mM.\nFor LC-MS/MS analysis, chromatographic separation was carried out on the HPLC-MS system Q-TRAP 6500 LC-MS/MS System from AB Sciex equipped with Shimadzu LC-20A LC and AutoSampler system. The mixture was separated on a Synergi Fusion RP 4 m from Phenomenex (150 mm × 2.00 mm).\nTauro-conjugated and non-conjugated BAs were separated at a flow rate of 200 μL/min using a methanol–aqueous ammonium acetate (NH4OAc) gradient. Mobile phase A was water containing 5 mM ammonium acetate and 0.1% formic acid, mobile phase B was methanol, containing ammonium acetate at 5 mM and 0.1% formic acid. […] ESI was performed in negative ion mode and the ion source temperature was set at 280°C. The tune page parameters were automatically optimized injecting taurocholic acid at 1 μM as standard."}}, "data": [{"compound": "CC[C@H]1[C@@H](O)[C@@H]2[C@H](CC[C@]3(C)[C@@H]([C@H](C)CCC(=O)O)CC[C@@H]23)[C@@]2(C)CC[C@H](N=[N+]=[N-])C[C@@H]12", "note": "[compound 2, 3β-azido-6α-ethyl-7α-hydroxy-5β-cholan-24-oic acid]", "values": [{"measurement": "GPBAR1 transactivation", "setting": "[1]", "result": "inactivity"}, {"measurement": "relative hepatic mRNA expression of BSEP", "setting": "[2]", "result": "significantly up-regulated"}, {"measurement": "relative hepatic mRNA expression of CYP7A1", "setting": "[2]", "result": "downregulated"}, {"measurement": "relative hepatic mRNA expression of FGF21", "setting": "[2]", "result": "significantly up-regulated"}, {"measurement": "relative hepatic mRNA expression of OSTα", "setting": "[2]", "result": "significantly up-regulated"}, {"measurement": "relative hepatic mRNA expression of SHP", "setting": "[2]", "result": "significantly up-regulated"}, {"measurement": "liver metabolism / tauro-conjugation", "setting": "[3]", "result": "extensive liver metabolism"}, {"measurement": "blood level of tHCA", "setting": "[4]; 50 mg/kg", "result": "significantly reduced"}, {"measurement": "level of tauro-deoxycholic acid (tDCA)", "setting": "[4]; 50 mg/kg oral", "result": "reduction"}, {"measurement": "plasmatic and gallbladder levels of tauro-cholic acid (tCA)", "setting": "[4]; 50 mg/kg oral", "result": "significantly reduced"}, {"measurement": "plasmatic and gallbladder levels of tauro-muricholic acid (tMu)", "setting": "[4]; 50 mg/kg oral", "result": "significantly reduced"}]}]}
